Data: patent US12029738B2, “Antiproliferative compounds and methods of use thereof” (Celgene Corporation, priority 2017, dated 2024)

Columns and labels:
[1] = system: non-selective α1 adrenergic receptor; assay: α1 adrenergic receptor radioligand binding ([3H]prazosin); conditions: rat cerebral cortex
Procedure: (§1) α1 Adrenergic and Dopamine D2 Receptors. Methods: Binding and functional assays for α1 adrenergic and dopamine D2 receptors were performed by Eurofins Cerep according to their methods.
α1 Adrenergic Receptor. Binding at 10 μM. The binding assay evaluated the affinity of test article for the non-selective α1 adrenergic receptor in rat cerebral cortex. Membrane homogenates of cerebral cortex were incubated in duplicate for 60 minutes at room temperature with 0.25 nM [^3H]prazosin in the absence or presence of test articles at 10 μM. After the incubation period, samples were filtered through glass fiber filters, the filters dried and then counted for radioactivity using a scintillation counter. Results are expressed as mean percent inhibition of control radioligand binding.
Binding IC50. […] Compound A was tested at 0.01-30 μM. […] Compound 1 and Compound 2, the S-enantiomer of Compound 1, were assayed at 0.03-100 μM. Radioactivity was measured as described above. The IC50 was defined as the concentration causing a half-maximum inhibition of control specific binding.

[2] = biological target: T1, α1A adrenergic receptor (Homo sapiens, UniProt P35348); assay: α1A adrenergic receptor antagonist assay (calcium mobilization, CHO cells); assay type: cell-based; conditions: epinephrine 3 nM; calcium mobilization; read-out: Antagonism IC50 α1A
T1 construct: host or cells: CHO cells
T1 sequence (P35348 1-466): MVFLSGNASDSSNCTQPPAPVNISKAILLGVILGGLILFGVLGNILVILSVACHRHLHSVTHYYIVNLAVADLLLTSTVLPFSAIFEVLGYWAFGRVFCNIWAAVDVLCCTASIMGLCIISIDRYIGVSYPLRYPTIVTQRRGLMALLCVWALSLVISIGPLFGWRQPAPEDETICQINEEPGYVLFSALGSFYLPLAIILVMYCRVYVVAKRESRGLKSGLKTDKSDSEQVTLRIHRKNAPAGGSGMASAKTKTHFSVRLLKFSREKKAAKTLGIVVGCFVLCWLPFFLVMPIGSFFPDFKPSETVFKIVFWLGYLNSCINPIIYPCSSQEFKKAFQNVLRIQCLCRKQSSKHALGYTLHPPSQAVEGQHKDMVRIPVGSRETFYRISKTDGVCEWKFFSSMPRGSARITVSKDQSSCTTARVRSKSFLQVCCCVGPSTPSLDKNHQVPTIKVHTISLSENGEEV
Procedure: as §1
Antagonist activity. The antagonistic effects of test compounds on the α1A and α1B adrenergic receptors were measured using human receptor-transfected Chinese hamster ovary (CHO) cells. Antagonist activity was determined by measuring compound effect on agonist (epinephrine)-induced calcium mobilization in the α1A receptor assay or cAMP levels in the α1B receptor assay. In these experiments, CHO cells were incubated in duplicate at room temperature with test article and epinephrine at 3 nM in the α1A receptor assays or at 3000 nM in the α1B receptor assay. Compound A was tested in the α1A receptor assay at 0.01-30 μM. […] Compound 1 and Compound 2 were assayed at 0.03 to 30 μM in the α1A receptor assay and 0.03 to 100 μM in the α1B receptor assay. In the α1A receptor assay, cytosolic calcium levels were measured fluorometrically using the fluorescent probe, Fluo4 Direct. Intracellular cAMP levels in the α1B adrenergic receptor assay were measured by homogenous time-resolved fluorescence (HTRF). The antagonism IC50 was defined as the concentration causing a half-maximum inhibition of control agonist response.

[3] = biological target: T2, dopamine D2S receptor (Homo sapiens, UniProt P14416); assay: Dopamine D2S receptor radioligand binding (HEK-293)
T2 construct: host or cells: HEK-293 cells (membrane homogenates)
T2 sequence (P14416 1-414 isoform P14416-2): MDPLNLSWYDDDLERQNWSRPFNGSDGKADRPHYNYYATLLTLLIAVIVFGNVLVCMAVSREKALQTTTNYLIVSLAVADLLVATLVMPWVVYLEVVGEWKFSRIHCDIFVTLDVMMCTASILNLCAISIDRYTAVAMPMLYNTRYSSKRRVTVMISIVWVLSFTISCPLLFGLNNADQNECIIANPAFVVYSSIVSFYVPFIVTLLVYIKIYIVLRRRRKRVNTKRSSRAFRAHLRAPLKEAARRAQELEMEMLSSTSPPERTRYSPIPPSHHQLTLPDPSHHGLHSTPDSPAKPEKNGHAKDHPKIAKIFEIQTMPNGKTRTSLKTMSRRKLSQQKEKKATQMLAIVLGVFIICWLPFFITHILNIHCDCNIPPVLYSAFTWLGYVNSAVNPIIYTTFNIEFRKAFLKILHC
Procedure: as §1
Dopamine D2 Receptor. Binding at 10 μM. The binding assay evaluated the affinity of test articles for the dopamine D2 receptor in transfected human embryonic kidney (HEK)-293 cells. For determining the binding in the D2S receptor assay, test article was incubated with 0.3 nM [^3H] methylspiperone or 1 nM [^3H] 7-hydroxy-2-N,N-dipropylaminotetralin (7-OH-DPAT). [3H] Methylspiperone at 0.3 nM also was used as control ligand in the D2L binding assay. Cell membrane homogenates were incubated in duplicate at room temperature for 60 minutes with ligand in the absence or presence of test articles at 10 μM. After the incubation period, samples were filtered through glass fiber filters, the filters dried and then counted for radioactivity using a scintillation counter. Results are expressed as mean percent inhibition of control radioligand binding.
Binding IC50. To determine the binding IC50 in the D2 receptor assays, HEK-293 were tested as described above but with varying concentrations of test article. Compound A was tested at 0.01-30 μM in the D2S radioligand binding assay. […] Compound 1 was assayed at 0.03-100 μM in both the D2S and D2L assays, while Compound 2 was tested at 0.03-100 μM in the D2S assay and 0.01-100 μM in the D2L assays. The IC50 was defined as the concentration causing a half-maximum inhibition of control specific binding.

[4] = biological target: T2, dopamine D2S receptor; assay: Dopamine D2S receptor agonist assay (impedance, HEK-293); assay type: cell-based; conditions: impedance; versus dopamine control; read-out: D2S Agonism EC50
Procedure: as §1
Agonist activity. The agonism of test compounds on the dopamine D2S receptor was assessed using human receptor-transfected HEK-293 cells. Agonist activity was determined by measuring compound effect on impedance modulation. In these experiments, HEK-293 cells were incubated in duplicate at 28° C. with test article. Compound A was tested at 0.01-30 μM. […] Dopamine (3 μM) was used as an agonist control. Impedance measurements were monitored for 10 minutes after ligand addition using cellular dielectric spectroscopy. The EC50 was defined as the concentration causing a half-maximum response, compared to the control agonist (dopamine) response.

[5] = in vivo; conditions: rat
Procedure: 7-Day Exploratory Toxicology Studies in Male Rats. Methods. Male CD-IGS rats (n=5/group for toxicologic assessment; n=4/group for toxicokinetic assessment) were dosed once daily by oral gavage (10 mL/kg) with vehicle (0.5% HPMC/0.25% Tween-80 in 50 mM citrate, pH 2.6-2.8) or test articles (Compound A or Compound 1) at 100, 300 or 1000 mg/kg/day for 7 consecutive days. Blood samples for toxicokinetics were collected on Days 1 and 7. […] Body weight was recorded at randomization, prior to dosing on Days 1-7 and prior to necropsy. Samples for hematology and serum chemistry analyses were collected on Day 8, approximately 24 h after the last dose. Rats were euthanized on Day 8 for necropsy. Anatomic pathology evaluation consisted of gross observation, organ weight and histopathologic examination of select tissues.

[6] = system: neutrophil progenitors (BM CD34+ cells from healthy donors); assay: In vitro maturation of neutrophil progenitors, dexamethasone alone and with Compound 2
Procedure: Methods. To understand the effects of dexamethasone on neutropenia, in vitro cultures of BM CD34^+ cells from healthy donors were used to evaluate the neutropenic events mediated by dexamethasone as a single agent and in combination with Compound 2. To define the effects of dexamethasone monotherapy in this model, 1, 10, or 100 nM dexamethasone exposure was maintained for 30 h comparing 7 different dosing schedules (FIG. 11). For combination studies, single exposure Compound 2 (1, 10, or 100 nM) and dexamethasone were maintained for 6 and 30 h, respectively, starting at Day 13 of culture.

[7] = system: lenalidomide-resistant NCI-H929 (H929-1051) multiple myeloma/plasmacytoma tumors; assay: H929-1051 xenograft, Compound 2 alone and with dexamethasone; assay type: in vivo, mouse; conditions: single agent dexamethasone 0.5 mg/kg oral once daily
[8] = system: multiple myeloma and plasma cell leukemia cell lines (OPM2.P10, RPMI.8226, L363, JJN-3); assay: Combination with proteasome inhibitor pulse (flow cytometry, 72 h); assay type: cell-based, human; conditions: L363; 1 h pulse
Procedure: Twenty four hours prior to treatment with a proteasome inhibitor and test compound, an appropriate number of cells were split to a concentration of 0.2×10^6/mL in fresh media to allow for exponential growth. On the day of treatment, compounds were freshly solvated in DMSO. Proteasome inhibitors bortezomib or carfilzomib were diluted and added to pre-warmed culture media at the final working concentrations of 150 nM or 300 nM for bortezomib and 300 nM or 550 nM for carfilzomib. Proteasome inhibitor concentrations were determined based upon clinical Cmax concentrations as well as previous studies in each cell line which determined the duration and concentration of PI required to inhibit a specific amount of β5 proteasome activity. Cells were counted and an appropriate number were placed into media containing proteasome inhibitor and thoroughly mixed. After incubation for 1 h at 37° C., 5% CO2, cells were washed two times with 40 mL of complete media to remove the proteasome inhibitor. […] Plated cells were cultured at 37° C., 5% C02, for the remainder of the experiment, up to 72 h. Every 24 h, proteasome inhibition was monitored by the Cell-Based Proteasome-Glo Assay. Proliferation and apoptosis were measured at 72 h by flow cytometry. Cells were stained with APC Annexin-V and 7-AAD to enumerate the number of viable cells remaining in culture.
An in vitro cell assay was established in order to mimic the clinical pharmacokinetics (PK) and pharmacodynamics (PD) of exposure to proteasome inhibitors bortezomib and carfilzomib.

[9] = system: lenalidomide-resistant NCI-H929 (H929-1051) multiple myeloma/plasmacytoma tumors; assay: H929-1051 xenograft, Compound 2 alone and with bortezomib; assay type: in vivo, mouse

SMILES: O=C1CCC(N2Cc3c(OCc4ccc(CN5CCN(c6ccc(F)cc6F)CC5)cc4)cccc3C2=O)C(=O)N1 (racemic) [Compound A, 3-(4-((4-((4-(2,4-difluorophenyl)piperazin-1-yl)methyl)benzyl)oxy)-1-oxoisoindolin-2-yl)piperidine-2,6-dione]
- Adrenergic α1 (non-selective) % Inhibition (10 μM) ([1]; 10 μM, 0.25 nM [3H]prazosin): 102%
- IC50 ([1]; [3H]prazosin): 64 nM
- IC50 [2]: 14 nM
- IC50 ([3]; read-out: D2S Binding IC50): 150 nM
- inhibition at 10 µM ([3]; read-out: Dopamine D2S % Inhibition (10 μM)): 99%
- EC50 [4]: 16 nM
- AUC(0-t) ([5]; male, CD-IGS, po, 100 mg/kg/day): 441 µM·h
- AUC(0-t) ([5]; male, CD-IGS, po, 300 mg/kg/day): 1230 µM·h
- AUC(0-t) ([5]; male, CD-IGS, po, 1000 mg/kg/day): 1760 µM·h
- dose at which abnormal stomach content (dry, feed material) was observed grossly ([5]; male, CD-IGS, po, 7 days): ≥ 100 mg/kg
- dose at which clinical signs of toxicity (hunched posture, piloerection, decreased activity) and decreased body weight were observed ([5]; male, CD-IGS, po, 7 days): ≥ 300 mg/kg
- test article-related microscopic findings [5]: minimal multifocal myocardial necrosis and mixed cell infiltration in hearts of rats at all dose levels

SMILES: C[C@@H]1C[C@H]2[C@@H]3CCC4=CC(=O)C=C[C@]4(C)[C@@]3(F)[C@@H](O)C[C@]2(C)[C@@]1(O)C(=O)CO [Dexamethasone, dexamethasone]
- viability of immature and mature neutrophils ([6]; alone or in combination): not affected
- maturation of neutrophil progenitors / late-stage neutrophil precursors ([6]; single agent, 1, 10, 100 nM, dexamethasone 30 h, Compound 2 6 h): not affected
- tumor growth inhibition / tumor volume reduction (TVR) [7]: 20%

SMILES: CC(C)C[C@H](NC(=O)[C@H](Cc1ccccc1)NC(=O)c1cnccn1)B(O)O [bortezomib]
- single agent activity on cell viability [8]: no single agent activity on cell viability
- tumor growth inhibition / tumor volume reduction (TVR) ([9]; single agent bortezomib 1 mg/kg iv single dose day 31, day 50): 60%
- day by which tumors reached approximately 2000 mm^3 ([9]; single agent, 1 mg/kg): 66 days
